From the NIST ThermoML archive (doi:10.1016/j.jct.2005.09.003)
Numbers after ± are expanded uncertainties.

How the values were obtained:
[1] = Liquid
[2] = refractive index (Na D-line) (dimensionless); conditions: 298.15 K; 101.33 kPa; Liquid; Standard Abbe refractometry

CCCCCCCC [octane]
mass density [kg/m3], [1]
Conditions | 298.15 K | 308.15 K | 318.15 K | 328.15 K
100 kPa | 698.64 ± 0.61 | 690.43 ± 0.63 | 682.47 ± 0.65 | 674.53 ± 0.66
2130 kPa | 700.14 ± 0.71 | 692.18 ± 0.73 | 684.48 ± 0.74 | 676.49 ± 0.76
4150 kPa | 701.87 ± 0.8 | 694 ± 0.82 | 686.45 ± 0.83 | 678.56 ± 0.85
6180 kPa | 703.56 ± 0.88 | 695.79 ± 0.9 | 688.29 ± 0.92 | 680.59 ± 0.95
8210 kPa | 705.17 ± 0.97 | 697.53 ± 0.99 | 690.17 ± 1 | 682.57 ± 1
10230 kPa | 706.78 ± 1.1 | 699.24 ± 1.1 | 691.97 ± 1.1 | 684.51 ± 1.1
11250 kPa | 707.58 ± 1.1 | 700.07 ± 1.1 | 692.85 ± 1.1 | 685.44 ± 1.2
12260 kPa | 708.37 ± 1.1 | 700.88 ± 1.2 | 693.77 ± 1.2 | 686.38 ± 1.2
14290 kPa | 709.9 ± 1.2 | 702.55 ± 1.2 | 695.49 ± 1.3 | 688.23 ± 1.3
16310 kPa | 711.41 ± 1.3 | 704.13 ± 1.3 | 697.2 ± 1.4 | 690.03 ± 1.4
18340 kPa | 712.9 ± 1.4 | 705.71 ± 1.4 | 698.86 ± 1.5 | 691.76 ± 1.5
20370 kPa | 714.36 ± 1.5 | 707.23 ± 1.5 | 700.47 ± 1.5 | 693.5 ± 1.6
22390 kPa | 715.78 ± 1.6 | 708.76 ± 1.6 | 702.07 ± 1.6 | 695.17 ± 1.7
24420 kPa | 717.18 ± 1.6 | 710.22 ± 1.7 | 703.61 ± 1.7 | 696.82 ± 1.8
26450 kPa | 718.56 ± 1.7 | 711.66 ± 1.8 | 705.13 ± 1.8 | 698.41 ± 1.8
28470 kPa | 719.9 ± 1.8 | 713.09 ± 1.8 | 706.66 ± 1.9 | 699.98 ± 1.9
29490 kPa | 720.57 ± 1.8 | 713.77 ± 1.9 | 707.38 ± 1.9 | 700.75 ± 2
30500 kPa | 721.22 ± 1.9 | 714.47 ± 1.9 | 708.13 ± 2 | 701.53 ± 2
32530 kPa | 722.53 ± 2 | 715.84 ± 2 | 709.54 ± 2 | 703.01 ± 2.1
34550 kPa | 723.82 ± 2 | 717.18 ± 2.1 | 710.96 ± 2.1 | 704.5 ± 2.2
36580 kPa | 725.06 ± 2.1 | 718.5 ± 2.2 | 712.33 ± 2.2 | 705.96 ± 2.2
38600 kPa | 726.32 ± 2.2 | 719.82 ± 2.2 | 713.68 ± 2.3 | 707.36 ± 2.3
39620 kPa | 726.94 ± 2.2 | 720.45 ± 2.3 | 714.38 ± 2.3 | 708.06 ± 2.4

Conditions | refractive index
[2] | 1.395 ± 0.0004
